# Read-outs that look alike come from different tables or passages of the source.
# How the values were obtained:
# [1] = Effect of smoking on pharmacokinetics; type: in vivo, human; conditions: for Vd/F: read-out: Vz/F; for half-life: read-out: t½ (converted)
# From the text: Smokers were defined as those smoking 10 or more cigarettes per day. Non-smokers were defined as those smoking no cigarettes per day.
# tmax as stated in text = conditions: in vivo
# [2] = Fluvoxamine co-administration pharmacokinetic study; type: in vivo, human
# Experimental: Twenty-four healthy male or female subjects between the ages of 18 and 55 years of age (inclusive) who were non-smokers with a body mass index (BMI) of ≧18 and ≦35 kg/m2 participated in this open-label, single-sequence study conducted at one site. On day 1, subjects were administered 5.667 mg of tasimelteon.
# MT1R = MT1R (Homo sapiens, UniProt P48039); assay: Melatonin receptor MT1R affinity; type: binding
# Chain of MT1R (P48039 whole entry): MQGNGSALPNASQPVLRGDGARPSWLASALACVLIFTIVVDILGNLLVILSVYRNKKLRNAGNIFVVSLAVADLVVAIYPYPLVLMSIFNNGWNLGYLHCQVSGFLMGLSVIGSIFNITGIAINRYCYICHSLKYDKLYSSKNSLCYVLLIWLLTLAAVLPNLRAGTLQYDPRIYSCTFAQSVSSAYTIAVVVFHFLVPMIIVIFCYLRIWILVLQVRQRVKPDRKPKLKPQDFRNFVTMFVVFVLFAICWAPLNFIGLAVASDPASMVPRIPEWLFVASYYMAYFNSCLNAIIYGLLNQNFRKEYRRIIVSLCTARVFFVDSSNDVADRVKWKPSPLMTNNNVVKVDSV
# Non-24 patients = assay: Entrainment by baseline peak aMT6s and beta blocker status (clinical studies); type: in vivo, humans
# Experimental: A useful protocol for estimating tau in candidates for clinical testing for treatment of Non-24, which method can be applied to diagnosis of Non-24 in a given patient, is as follows: • Each subject will undergo four 48-hour urine collection sessions at nominal days 7, 14, 21, and 28. During each session, the start of the session and the time of each void will be recorded. Urine collected over periods of 4 hours (with the first 4 hour collection period of the day beginning at scheduled wake time), or about 8 hours during sleep, will be pooled (the “collection interval”); thus, subjects will have a total of 10 urine collection intervals during each 48-hour period. A study nurse will determine the volume of urine collected during each interval (urine will be transferred to a graduated cylinder) and an aliquot will be assayed for aMT6s. • For each collection interval, the start and end time of the interval will be used to determine the midpoint and duration of the interval. The start time of a given interval is defined as the last void time from the prior 4 hour (or 8 hour) collection interval; the end time of a given interval is defined as the last void time within the collection interval. • The mass of the primary melatonin metabolite (aMT6s) excreted during the interval will be determined as the product of aMT6s concentration and volume of urine. Rate of aMT6s excretion will be determined as the mass of aMT6s excreted divided by the duration of the interval. […] For screening there will be occasions when the 4 different weeks that urine collections are conducted will span a change in the clock time. Therefore, all urine collection times will be automatically translated into local standard time for calculations and then translated back to DST for reporting purposes, if appropriate. • In certain situations, urine collections or their recording will be incomplete. The following procedures will be invoked to address this: • 1. If a subject fails to timestamp a void, no action will be taken if there are multiple voids with timestamps within one interval. • 2. If there is only one void in a collection interval, and the patient cannot recall the time of the void then the entire 48 hour collection period will be excluded from the analysis and the subject will be requested to collect an additional 48 hours of urine after Day 28. It would not be possible to accurately determine to which collection interval the unmarked urine belongs. Consequently, the appropriate assignment of start and stop times to all of the collection intervals would be questionable. • 3. If a void is discarded by the patient but the time of the void is known, duration associated with that void (time of the void minus the time of the previous void) will be subtracted from the total duration associated with that interval. This modified duration will be used to calculate rate of aMT6s excretion. If a discarded sample is either the first or last of the samples in an interval, the midpoint of that interval will be calculated without considering that sample. • 4. If fewer than 4 samples are available for one 48-hour collection session, fitting of the cosine will be compromised (inadequate degrees of freedom). Consequently, acrophase will not be determined if fewer than four samples are available. • For each session, acrophase will be determined by fitting a cosine to the data from that session using unweighted non-linear regression. Fitting will be performed using a non-linear least squares fitting algorithm. The fitting process will estimate phase shift, mesor, and amplitude and their respective standard errors; period of the cosine will be fixed to 24 hours.* • Acrophase will be determined as the phase shift modulus 24 hours. • If acrophase values are available for three or more sessions, tau will be calculated using the following procedure: • 1. Acrophase will be recalculated relative to day 0 (24·start day for each session+acrophase). • 2. […]
# MT2R = molecular target: T1, MT2R (Homo sapiens, UniProt P49286); assay: Melatonin receptor MT2R affinity; type: binding
# T1 sequence (P49286 1-362): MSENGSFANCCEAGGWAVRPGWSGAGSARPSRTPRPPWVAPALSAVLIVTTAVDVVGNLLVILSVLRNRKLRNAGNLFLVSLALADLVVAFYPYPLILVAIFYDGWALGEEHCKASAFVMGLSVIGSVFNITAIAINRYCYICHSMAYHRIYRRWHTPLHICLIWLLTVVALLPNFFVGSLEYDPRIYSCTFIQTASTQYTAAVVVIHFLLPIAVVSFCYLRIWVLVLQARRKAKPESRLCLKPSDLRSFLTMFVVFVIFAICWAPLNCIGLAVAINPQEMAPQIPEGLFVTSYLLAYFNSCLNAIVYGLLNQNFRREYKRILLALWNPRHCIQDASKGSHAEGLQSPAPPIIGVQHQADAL
# [3] = Smokers (10 or more cigarettes per day)
# [4] = human, in vivo, Smokers (10 or more cigarettes per day)
# [5] = both sexes, human, in vivo, Day 1: 5.667 mg tasimelteon alone
# [6] = compared to tasimelteon administered alone
smiles,measurement,setting,value
CCC(=O)NCC1CC1c1cccc2c1C(O)CO2 (centres unmarked) [M14],AUC (inf),[1]; [3],9.45 ± 11.88 h x ng/mL
same,Tmax,[1]; [3],45 min
"CCC(=O)NC[C@@H]1C[C@H]1c1cccc2c1CCO2 (relative stereo) [Tasimelteon, trans-N-[[2-(2,3-dihydrobenzofuran-4-yl)cycloprop-1yl]methyl]propanamide]",AUC(0-inf),"[1]; human, in vivo, Non-Smokers",0.389 ± 0.429 µg·h/mL
same,Cmax,"[1]; human, in vivo, Non-Smokers",0.239 ± 0.177 µg/mL
same,Tmax,"[1]; human, in vivo, Non-Smokers, read-out: Tmax",30 min
same,Vd/F,"[1]; human, in vivo, Non-Smokers",133 ± 83 L
same,half-life,"[1]; human, in vivo, Non-Smokers",70.8 ± 27.6 min
same,AUC(0-inf),[1]; [4],0.205 ± 0.152 µg·h/mL
same,Cmax,[1]; [4],0.136 ± 0.0595 µg/mL
same,Tmax,"[1]; human, in vivo, Smokers (10 or more cigarettes per day), read-out: Tmax",45 min
same,Vd/F,[1]; [4],189 ± 94.2 L
same,half-life,[1]; [4],59.4 ± 10.8 min
same,Tmax,tmax as stated in text,approximately one-half
same,AUC(0-inf),[2]; [5],0.102 ± 0.0615 µg·h/mL
same,Cmax,[2]; [5],0.068 ± 0.0289 µg/mL
same,Tmax,[2]; [5],30 min
same,half-life,"[2]; both sexes, human, in vivo, Day 1: 5.667 mg tasimelteon alone, read-out: t½ (converted)",72 ± 13.2 min
same,increase of AUC0-inf upon co-administration of fluvoxamine,[2]; [6],approximately 7 fold
same,increase of Cmax upon co-administration of fluvoxamine,[2]; [6],approximately 2 fold
same,Ki,MT1R,0.3 to 0.4 nM
same,"Entrained, percent of patients",Non-24 patients; Peak aMT6s <1500 ng/hr,41%
same,"Non-entrained, percent of patients",Non-24 patients; Peak aMT6s <1500 ng/hr,59%
same,"Entrained, percent of patients",Non-24 patients; Peak aMT6s <2000 ng/hr,38%
same,"Non-entrained, percent of patients",Non-24 patients; Peak aMT6s <2000 ng/hr,62%
same,"Entrained, percent of patients",Non-24 patients; Peak aMT6s ≧1500 ng/hr,67%
same,"Non-entrained, percent of patients",Non-24 patients; Peak aMT6s ≧1500 ng/hr,33%
same,"Entrained, percent of patients",Non-24 patients; Peak aMT6s ≧2000 ng/hr,85%
same,"Non-entrained, percent of patients",Non-24 patients; Peak aMT6s ≧2000 ng/hr,15%
same,"Entrained, percent of patients",Non-24 patients; Peak aMT6s: All,51%
same,"Non-entrained, percent of patients",Non-24 patients; Peak aMT6s: All,49%
same,Ki,MT2R,0.1 to 0.2 nM
CCC(=O)NC[C@@H]1CC1c1cccc(O)c1CC(=O)O (some centres unmarked) [M11],AUC(0-inf),[2]; [5],0.104 ± 0.03 µg·h/mL
CCC(=O)NC[C@@H]1CC1c1cccc(O)c1CCO (some centres unmarked) [M9],AUC(0-inf),[2]; [5],0.0445 ± 0.0172 µg·h/mL
CCC(=O)NCC1CC1c1cccc2c1C(O)CO2 (centres unmarked) [M12],AUC (inf),[1]; [3],526 ± 193 h x ng/mL
same,Tmax,[1]; [3],60 min

# From USRE46604E1, “Treatment of circadian rhythm disorders” (VANDA PHARMACEUTICALS, INC., priority 2012, dated 2017)
